The values that follow come from ChEMBL document CHEMBL1201862, “PubChem BioAssay data set” (2004).

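A five-concentration, 48-hour dose response in 96-well plates underlies each endpoint, interpolated linearly between surrounding concentrations. The concentration for 50% growth inhibition is given as GI50.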 Active and inactive are the calls of the source. Cut-off read from the data, not from the text of the source: active = GI50 up to about 1.1 µM and inactive = higher. A value given as a limit tells only on which side of the number the result lay.

Some test systems named below: HCT-116; Malme-3M; KM12; MCF7; UO-31; RXF 393; TK-10; MDA-MB-231; LOX IMVI; SNB-19; ACHN; OVCAR-3; UACC-62; HCT-15; 786-0; K562; SR; A498; NCI-H460; SK-MEL-2.
Holding throughout (experiment): growth of human tumour cells (NCI), 48 h

With `O=C1/C(=C/c2cccc3ccccc23)CCc2ccc([N+](=O)[O-])cc21`, the GI50 was 14.5 µM (inactive) in the assay on HCT-116; 17.3 µM (inactive) in the assay on Malme-3M; 6.32 µM (inactive) in the assay on KM12; 4.8 µM (inactive) in the assay on MCF7; 33.7 µM (inactive) in the assay on UO-31; 23.4 µM (inactive) in the assay with RXF 393. Besides, the GI50 in the assay with TK-10 is 27.2 µM (inactive); in the assay on MDA-MB-231 it was 28.5 µM (inactive); in the assay with LOX IMVI, 26.9 µM (inactive); in the assay on SNB-19, 12.7 µM (inactive); with ACHN, 26.8 µM (inactive); in the assay on OVCAR-3, 3.22 µM (inactive). For the same molecule, the GI50 with UACC-62 is 13.3 µM (inactive); with HCT-15, 17.9 µM; in the assay with 786-0, 23.3 µM (inactive); with K562 it was 7.16 µM (inactive); in the assay with SR, > 10 µM (inactive); in the assay with A498, 19.3 µM (inactive). For the same molecule, the GI50 in the assay on NCI-H460 was 29 µM (inactive).

Regarding `C(=C\c1cccs1)/c1cccc(/C=C/c2cccs2)n1`, the GI50 with HCT-116 was > 100 µM (inactive); in the assay on Malme-3M, 1.72 µM (inactive); in the assay on KM12 it was 4.3 µM (inactive); in the assay on MCF7, 3.55 µM (inactive); in the assay with UO-31, 30.3 µM (inactive); in the assay on RXF 393, > 100 µM (inactive). Moreover, the GI50 in the assay with TK-10 was 34.9 µM (inactive); in the assay with MDA-MB-231, > 100 µM (inactive); in the assay with LOX IMVI, > 100 µM (inactive); in the assay with SNB-19, 78.9 µM (inactive); in the assay with ACHN it was 8.11 µM (inactive); in the assay on OVCAR-3, 50.8 µM (inactive). Further, the GI50 is > 100 µM (inactive) with UACC-62; greater than 100 µM in the assay on HCT-15; 35.3 µM (inactive) in the assay on 786-0; > 100 µM (inactive) with K562; 32.4 µM (inactive) with SR; 36.4 µM (inactive) in the assay on NCI-H460. Moreover, in the assay on SK-MEL-2, the GI50 is > 100 µM (inactive).

`CC(=O)Nc1ccc(NNc2cc(=O)n(C)c(=O)[nH]2)cc1`: the GI50 with HCT-116 was 4.33 µM (inactive); in the assay on Malme-3M, 12.4 µM (inactive); with KM12 it was 12 µM (inactive); in the assay on MCF7, 5.57 µM (inactive); in the assay on UO-31, 17.2 µM (inactive); with TK-10, 23.2 µM (inactive). In addition, the GI50 in the assay with MDA-MB-231 is 12.1 µM (inactive); with LOX IMVI it was 2.56 µM (inactive); with SNB-19, 17.7 µM (inactive); in the assay with ACHN it was 2.91 µM (inactive); with OVCAR-3, 2.68 µM (inactive); with HCT-15, 8.55 µM. Further, the GI50 was 2.71 µM (inactive) in the assay with 786-0; 33.3 µM (inactive) with K562; 3.47 µM (inactive) in the assay with SR; 23.2 µM (inactive) in the assay with A498; 17.1 µM (inactive) in the assay on NCI-H460.

Take `COc1cc(C=O)cc(/C=N/n2c3ccccc3c3ccccc32)c1O`: the GI50 with HCT-116 is 10.9 µM (inactive); with Malme-3M it was 3.52 µM (inactive); with KM12, 35.8 µM (inactive); in the assay with MCF7 it was 3.78 µM (inactive); with UO-31, 8.18 µM (inactive); with RXF 393, 25 µM (inactive). For the same molecule, the GI50 was 36.9 µM (inactive) with TK-10; 17.4 µM (inactive) with MDA-MB-231; 14.2 µM (inactive) in the assay on LOX IMVI; 21.3 µM (inactive) in the assay on SNB-19; 6.12 µM (inactive) with ACHN; 45.2 µM (inactive) with OVCAR-3. Further, the GI50 is 6.67 µM (inactive) in the assay on UACC-62; 14.5 µM in the assay on HCT-15; 11.9 µM (inactive) in the assay on 786-0; 12 µM (inactive) with K562; 4.72 µM (inactive) in the assay on SR; 20.7 µM (inactive) with A498. In the assay with NCI-H460, the GI50 was 30.5 µM (inactive).

On to `C=C(C)CNC(=S)N(N)c1ccc2ccccc2c1`, for which the GI50 in the assay with HCT-116 was > 100 µM (inactive); in the assay on Malme-3M it was > 100 µM (inactive); with KM12 it was 13.6 µM (inactive); in the assay with MCF7, 26.5 µM (inactive); in the assay with UO-31, 61.1 µM (inactive); with RXF 393, > 100 µM (inactive). The GI50 with TK-10 was 23.6 µM (inactive); in the assay on MDA-MB-231 it was > 100 µM (inactive); in the assay with LOX IMVI, > 100 µM (inactive); in the assay with SNB-19, > 100 µM (inactive); with ACHN, 34.5 µM (inactive); in the assay on OVCAR-3, 88.5 µM (inactive). Further, the GI50 with UACC-62 is 23.9 µM (inactive); with HCT-15, 5.01 µM; with 786-0 it was > 100 µM (inactive); in the assay with K562, 40.4 µM (inactive); with SR, > 100 µM (inactive); with NCI-H460 it was > 100 µM (inactive).

For `CCN(CC)c1ccc2cc(-c3csc(C)n3)c(=O)oc2c1`, the GI50 in the assay on HCT-116 is 69.8 µM (inactive); in the assay on KM12 it was 13.5 µM (inactive); in the assay with MCF7, > 100 µM (inactive); in the assay with UO-31, > 100 µM (inactive); in the assay on RXF 393, 37.3 µM (inactive); in the assay on TK-10 it was 54.7 µM (inactive). Further, the GI50 is 71.8 µM (inactive) with MDA-MB-231; 67.3 µM (inactive) in the assay on LOX IMVI; 59.7 µM (inactive) in the assay on SNB-19; 70.3 µM (inactive) with ACHN; 52.8 µM (inactive) in the assay with UACC-62; greater than 100 µM in the assay on HCT-15. Besides, the GI50 is 39.2 µM (inactive) in the assay with 786-0; > 100 µM (inactive) in the assay with K562; 62.2 µM (inactive) with SR; > 100 µM (inactive) in the assay on NCI-H460; > 100 µM (inactive) with SK-MEL-2.

As to `CC(=O)OCc1cncn1S(=O)(=O)c1ccc(C)cc1`, the GI50 with HCT-116 is 25.6 µM (inactive); in the assay with Malme-3M, > 100 µM (inactive); in the assay with KM12 it was 31.7 µM (inactive); in the assay on MCF7 it was > 25.4 µM (inactive); in the assay with UO-31 it was > 100 µM (inactive); in the assay on RXF 393, > 100 µM (inactive). The GI50 is > 100 µM (inactive) with TK-10; > 100 µM (inactive) with MDA-MB-231; 30.8 µM (inactive) in the assay with LOX IMVI; > 100 µM (inactive) with SNB-19; > 100 µM (inactive) with ACHN; 43.5 µM (inactive) with OVCAR-3. Also, the GI50 in the assay with UACC-62 is > 91 µM (inactive); with HCT-15, 20.3 µM; in the assay with 786-0, > 100 µM (inactive); in the assay on K562, 5.37 µM (inactive); in the assay with SR it was 11.4 µM (inactive); in the assay on NCI-H460, 29.9 µM (inactive). Moreover, the GI50 in the assay on SK-MEL-2 is > 100 µM (inactive).

As to `Cc1cc(NS(=O)(=O)c2ccc(NC(=O)c3cccc4c(NNc5ccc(S(=O)(=O)N=C(N)N)cc5)c5ccccc5nc34)cc2)no1`, the GI50 is 40.2 µM (inactive) in the assay with HCT-116; 94.4 µM (inactive) in the assay with Malme-3M; 36 µM (inactive) with KM12; 43.7 µM (inactive) in the assay on MCF7; 54.2 µM (inactive) with UO-31; 46.8 µM (inactive) in the assay on RXF 393. Moreover, the GI50 in the assay on TK-10 is > 100 µM (inactive); in the assay on MDA-MB-231 it was 44.2 µM (inactive); in the assay on LOX IMVI, 34.6 µM (inactive); in the assay on SNB-19, 45.6 µM (inactive); in the assay with ACHN, 50.4 µM (inactive); in the assay with OVCAR-3, 41.2 µM (inactive). The GI50 is 42.9 µM (inactive) in the assay with UACC-62; 63.4 µM in the assay on HCT-15; > 100 µM (inactive) in the assay on 786-0; 36.8 µM (inactive) in the assay with K562; 35.8 µM (inactive) in the assay with SR; 51.9 µM (inactive) with NCI-H460. For the same molecule, the GI50 in the assay with SK-MEL-2 was 19.5 µM (inactive).

As to `O=C(NN1C(=O)c2ccccc2C1=O)c1ccccc1Nc1ccccc1C(=O)NN1C(=O)c2ccccc2C1=O`, the GI50 with HCT-116, with Malme-3M, in the assay with KM12, in the assay with MCF7, in the assay with UO-31 and in the assay on RXF 393 was > 100 µM (inactive) in each case. In addition, the GI50 in the assay on TK-10, in the assay with MDA-MB-231, in the assay with LOX IMVI, in the assay with SNB-19, in the assay on ACHN and in the assay on OVCAR-3 was > 100 µM (inactive) in each case. The GI50 with UACC-62 is > 100 µM (inactive); with HCT-15, greater than 100 µM; in the assay on 786-0, > 100 µM (inactive); with K562, > 100 µM (inactive); with SR, > 100 µM (inactive); with NCI-H460, > 100 µM (inactive). Also, the GI50 with SK-MEL-2 is > 100 µM (inactive).

For the molecule `O=C1O/C(=C(/Br)c2ccc(Cl)c(Cl)c2)c2ccccc21`, the GI50 in the assay with HCT-116 is > 10 µM (inactive); with KM12 it was > 10 µM (inactive); in the assay with MCF7, 7.67 µM (inactive); with UO-31, > 10 µM (inactive); in the assay on RXF 393 it was > 10 µM (inactive); in the assay with TK-10, > 10 µM (inactive). In addition, the GI50 in the assay with MDA-MB-231, in the assay on LOX IMVI, in the assay with SNB-19, in the assay on ACHN, with OVCAR-3 and with UACC-62 was > 10 µM (inactive) throughout. In addition, the GI50 with HCT-15 is greater than 10 µM; in the assay on 786-0, > 10 µM (inactive); in the assay on K562, > 10 µM (inactive); with SR it was > 10 µM (inactive); in the assay with NCI-H460 it was > 10 µM (inactive); with SK-MEL-2 it was > 10 µM (inactive).

For the molecule `CC(=O)Nc1ccc2c(c1)C(=O)c1cccc(F)c1-2`, the GI50 with HCT-116 was 24.2 µM (inactive); with Malme-3M, > 100 µM (inactive); with KM12 it was 0.401 µM (active); in the assay on MCF7 it was 4.33 µM (inactive); with UO-31 it was 21.2 µM (inactive); in the assay on RXF 393 it was 23.6 µM (inactive). For the same molecule, the GI50 is 55.6 µM (inactive) in the assay on TK-10; 30.4 µM (inactive) with MDA-MB-231; 38.2 µM (inactive) in the assay with LOX IMVI; > 100 µM (inactive) in the assay with SNB-19; 36.6 µM (inactive) in the assay with ACHN; 68.2 µM (inactive) in the assay with OVCAR-3. The GI50 in the assay with UACC-62 is 38 µM (inactive); in the assay with HCT-15, 24.7 µM; in the assay with 786-0 it was 71.6 µM (inactive); in the assay on K562, 50.2 µM (inactive); in the assay on SR it was 19.9 µM (inactive); with NCI-H460, 35.4 µM (inactive). The GI50 with SK-MEL-2 is > 100 µM (inactive).
